The target of one assay is T1, hTLR7 (Homo sapiens, UniProt Q9NYK1).
T1 construct: expressed in transfected cells; host or cells: HEK-Blue hTLR7 reporter cell line
T1 sequence (Q9NYK1 27-1049): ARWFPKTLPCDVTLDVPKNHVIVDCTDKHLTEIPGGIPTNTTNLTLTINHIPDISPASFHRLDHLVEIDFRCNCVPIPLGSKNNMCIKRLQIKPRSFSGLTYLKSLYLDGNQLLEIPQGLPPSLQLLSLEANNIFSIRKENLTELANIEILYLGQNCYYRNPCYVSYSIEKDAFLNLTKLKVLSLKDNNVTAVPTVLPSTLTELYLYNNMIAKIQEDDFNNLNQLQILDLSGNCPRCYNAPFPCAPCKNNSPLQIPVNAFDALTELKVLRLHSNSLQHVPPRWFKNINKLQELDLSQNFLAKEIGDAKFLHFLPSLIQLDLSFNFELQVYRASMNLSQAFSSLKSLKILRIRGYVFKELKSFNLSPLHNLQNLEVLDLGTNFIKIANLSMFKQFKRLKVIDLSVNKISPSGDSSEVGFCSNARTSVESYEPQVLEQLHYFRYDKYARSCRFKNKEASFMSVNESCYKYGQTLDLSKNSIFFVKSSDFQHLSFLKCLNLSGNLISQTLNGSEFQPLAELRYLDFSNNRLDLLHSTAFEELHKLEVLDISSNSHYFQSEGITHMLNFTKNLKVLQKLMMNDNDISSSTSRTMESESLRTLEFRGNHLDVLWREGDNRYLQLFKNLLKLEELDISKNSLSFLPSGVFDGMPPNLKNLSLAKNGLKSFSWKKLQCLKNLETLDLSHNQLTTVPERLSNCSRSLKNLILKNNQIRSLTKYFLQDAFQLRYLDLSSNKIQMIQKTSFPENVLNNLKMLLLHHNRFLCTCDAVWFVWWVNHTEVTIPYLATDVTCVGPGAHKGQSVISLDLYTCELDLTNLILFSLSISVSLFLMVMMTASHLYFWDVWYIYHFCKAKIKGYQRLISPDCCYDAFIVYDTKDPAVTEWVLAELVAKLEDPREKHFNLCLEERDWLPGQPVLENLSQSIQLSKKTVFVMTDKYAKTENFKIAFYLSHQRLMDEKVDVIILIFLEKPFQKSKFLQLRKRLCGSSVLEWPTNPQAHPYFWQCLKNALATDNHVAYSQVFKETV
In words: HEK-Blue hTLR7 reporter assay (NF-kB-induced SEAP, Quanti-Blue). The format is cell-based. As to conditions: Table 18, TLR7, PEG shielding; read-out: EC50. On the procedure:
HEK-Blue™ hTLR7 cells were incubated in HEK-Blue™ Detection medium and stimulated with increasing concentrations of TLR7 or TLR8 or TLR7/8 agonists. […] The EC50 was determined from dose-response curve using Prism Software.
For orientation: Reporter assays use an easily measured gene product as a stand-in for the process of interest.
For the compound `CCCCOc1nc(N)c2[nH]c(=O)n(Cc3ccc(CN4CCC(CCNC(=O)[C@H](CCCCNC(=O)CON)NC(=O)OCc5ccc(NC(=O)[C@H](C)NC(=O)[C@@H](NC(C)=O)C(C)C)cc5)CC4)cc3)c2n1` [AXC-926, 4-((S)-2-((S)-2-acetamido-3-methylbutanamido)propanamido)benzyl ((S)-1-((2-(1-(4-((6-amino-2-butoxy-8-oxo-7,8-dihydro-9H-purin-9-yl)methyl)benzyl)piperidin-4-yl)ethyl)amino)-6-(2-(aminooxy)acetamido)-1-oxohexan-2-yl)carbamate], the EC50 was 824 nM.

Still in this assay, the particulars now being: Table 19, TLR7, drug-linkers with PEG shielding; read-out: EC50.
On to `CCCCOc1nc(N)c2[nH]c(=O)n(Cc3ccc(CN4CCC(CCNC(=O)[C@@H](N)Cc5ccc(Cn6cc(CON)nn6)cc5)CC4)cc3)c2n1` [AXC-931, (S)-2-amino-N-(2-(1-(4-((6-amino-2-butoxy-8-oxo-7,8-dihydro-9H-purin-9-yl)methyl)benzyl)piperidin-4-yl)ethyl)-3-(4-((4-((aminooxy)methyl)-1H-1,2,3-triazol-1-yl)methyl)phenyl)propanamide], for which the EC50 was 490 nM.
The same measure, in the same setting: under `CCCCOc1nc(N)c2[nH]c(=O)n(Cc3ccc(CN4CCC(CCNC(=O)[C@@H](N)Cn5cc(CON)nn5)CC4)cc3)c2n1` [AXC-932, (S)-2-amino-N-(2-(1-(4-((6-amino-2-butoxy-8-oxo-7,8-dihydro-9H-purin-9-yl)methyl)benzyl)piperidin-4-yl)ethyl)-3-(4-((aminooxy)methyl)-1H-1,2,3-triazol-1-yl)propanamide] stands 156 nM; under `CCCCOc1nc(N)c2[nH]c(=O)n(Cc3ccc(CN4CCC(CCNC(=O)[C@@H](N)CO)CC4)cc3)c2n1` [AXC-933, (S)-2-amino-N-(2-(1-(4-((6-amino-2-butoxy-8-oxo-7,8-dihydro-9H-purin-9-yl)methyl)benzyl)piperidin-4-yl)ethyl)-3-hydroxypropanamide], 40 nM; under `CCCCOc1nc(N)c2[nH]c(=O)n(Cc3ccc(CN4CCC(CCNC(=O)[C@@H](N)Cc5ccc(O)cc5)CC4)cc3)c2n1` [AXC-934, (S)-2-amino-N-(2-(1-(4-((6-amino-2-butoxy-8-oxo-7,8-dihydro-9H-purin-9-yl)methyl)benzyl)piperidin-4-yl)ethyl)-3-(4-hydroxyphenyl)propanamide], 10.3 nM.
As for `CCCCOc1nc(N)c2[nH]c(=O)n(Cc3ccc(CN4CCC(CCNC(=O)[C@@H](N)CCCCn5cc(CON)nn5)CC4)cc3)c2n1` [AXC-935, (S)-2-amino-N-(2-(1-(4-((6-amino-2-butoxy-8-oxo-7,8-dihydro-9H-purin-9-yl)methyl)benzyl)piperidin-4-yl)ethyl)-6-(4-((aminooxy)methyl)-1H-1,2,3-triazol-1-yl)hexanamide], the EC50 is 40 nM.
In the case of `CCCCOc1nc(N)c2[nH]c(=O)n(Cc3ccc(CN4CCC(CCNC(=O)[C@H](CCCCNC(=O)CON)NC(=O)CCCC(=O)NCCOCCOCCOCCOCCOCCOCCOCCOCCOCCOCCOCCOCCOCCOCCOCCOCCOCCOCCOCCOCCOCCOCCOCCOCCOCCOCCOCCOCCOCCOCCOCCOCCOCCOCCOCCOCCOCCOCCOCCOCCOCCOCCOCCOCCOCCOCCOCCOC)CC4)cc3)c2n1` [AXC-936, (S)-N1-(1-((2-(1-(4-((6-amino-2-butoxy-8-oxo-7,8-dihydro-9H-purin-9-yl)methyl)benzyl)piperidin-4-yl)ethyl)amino)-6-(2-(aminooxy)acetamido)-1-oxohexan-2-yl)-N5-(PEG48)-glutaramide], the EC50 came to 764 nM.
The same measure, in the same setting: in the case of `CCCCOc1nc(N)c2[nH]c(=O)n(Cc3ccc(CN4CCC(CCNC(=O)[C@H](CCCCNC(=O)CON)NC(=O)CCOCCOCCOCCOCCOCCOCCOCCOC)CC4)cc3)c2n1` [AXC-937, (S)-2-PEG8-N-(2-(1-(4-((6-amino-2-butoxy-8-oxo-7,8-dihydro-9H-purin-9-yl)methyl)benzyl)piperidin-4-yl)ethyl)-6-(2-(aminooxy)acetamido)hexanamide] it was 456 nM.
On the same count and under the same terms, under `CCCCOc1nc(N)c2[nH]c(=O)n(Cc3ccc(CN4CCC(CCNC(=O)[C@H](CCCCNC(=O)CON)NC(=O)CCCC(=O)NCCOCCOCCOCCOCCC(=O)NC(COCCC(=O)NCCOCCOCCOCCOC)(COCCC(=O)NCCOCCOCCOCCOC)COCCC(=O)NCCOCCOCCOCCOC)CC4)cc3)c2n1` [AXC-938, (S)-N1-(1-((2-(1-(4-((6-amino-2-butoxy-8-oxo-7,8-dihydro-9H-purin-9-yl)methyl)benzyl)piperidin-4-yl)ethyl)amino)-6-(2-(aminooxy)acetamido)-1-oxohexan-2-yl)-N5-mPEG4-(PEG4)3-glutaramide] stands 644 nM; under `CCCCOc1nc(N)c2[nH]c(=O)n(Cc3ccc(CN4CCC(CCNC(=O)[C@H](CCCCNC(=O)CON)NC(=O)CCOCCOCCOCCOCCOCCOCCOCCOCCOCCOCCOCCOC)CC4)cc3)c2n1` [AXC-940, (S)—N-(2-(1-(4-((6-amino-2-butoxy-8-oxo-7,8-dihydro-9H-purin-9-yl)methyl)benzyl)piperidin-4-yl)ethyl)-6-(2-(aminooxy)acetamido)-2-PEG12-amidohexanamide], 644 nM.
As for `CCCCOc1nc(N)c2[nH]c(=O)n(Cc3ccc(CN4CCC(CCNC(=O)[C@H](CCCCNC(=O)CON)NC(=O)CCOCCOCCOCCOCCOCCOCCOCCOCCOCCOCCOCCOCCOCCOCCOCCOCCOCCOCCOCCOCCOCCOCCOCCOCCOCCOCCOCCOCCOCCOCCOCCOCCOCCOCCOCCOCCOC)CC4)cc3)c2n1` [AXC-941, (S)—N-(2-(1-(4-((6-amino-2-butoxy-8-oxo-7,8-dihydro-9H-purin-9-yl)methyl)benzyl)piperidin-4-yl)ethyl)-6-(2-(aminooxy)acetamido)-2-PEG37-amidohexanamide], the EC50 is 699 nM.
`CCCCOc1nc(N)c2[nH]c(=O)n(Cc3ccc(CN4CCC(CCNC(=O)[C@H](CCCCNC(=O)CON)NC(=O)CCCc5ccccc5)CC4)cc3)c2n1` [AXC-942, (S)—N-(2-(1-(4-((6-amino-2-butoxy-8-oxo-7,8-dihydro-9H-purin-9-yl)methyl)benzyl)piperidin-4-yl)ethyl)-6-(2-(aminooxy)acetamido)-2-(4-phenylbutanamido)hexanamide]: the EC50 turned out to be 387 nM.
As to `CCCCOc1nc(N)c2[nH]c(=O)n(Cc3ccc(CN4CCC(CCNC(=O)[C@H](CCCCNC(=O)CON)NC(=O)CCCC(=O)NCCOCCOCCOCCOCCC(=O)NC(COCCC(=O)NCCOCCOCCOCCOCCOCCOCCOCCOC)(COCCC(=O)NCCOCCOCCOCCOCCOCCOCCOCCOC)COCCC(=O)NCCOCCOCCOCCOCCOCCOCCOCCOC)CC4)cc3)c2n1` [AXC-945, (S)—N-(2-(1-(4-((6-amino-2-butoxy-8-oxo-7,8-dihydro-9H-purin-9-yl)methyl)benzyl)piperidin-4-yl)ethyl)-6-(2-(aminooxy)acetamido)-2-dPEG4-(m-dPEG8)3-amidohexanamide], the EC50 is 232 nM.
Still for that read-out and setting: in the case of `CCCCOc1nc(N)c2[nH]c(=O)n(Cc3ccc(CN4CCC(CCNC(=O)[C@H](CCCCNC(=O)CON)NC(=O)CCCC(=O)NCCOCCOCCOCCOCCC(=O)NC(COCCC(=O)NCCOCCOCCOCCOCCOCCOCCOCCOCCOCCOCCOCCOC)(COCCC(=O)NCCOCCOCCOCCOCCOCCOCCOCCOCCOCCOCCOCCOC)COCCC(=O)NCCOCCOCCOCCOCCOCCOCCOCCOCCOCCOCCOCCOC)CC4)cc3)c2n1` [AXC-946, (S)—N-(2-(1-(4-((6-amino-2-butoxy-8-oxo-7,8-dihydro-9H-purin-9-yl)methyl)benzyl)piperidin-4-yl)ethyl)-6-(2-(aminooxy)acetamido)-2-dPEG4-(m-dPEG12)3-amidohexanamide] it was 1410 nM.

A word on the EC50: it is the concentration at which the effect is half-maximal.

For the origin of these results see US20230302150A1, “ANTIBODY-TLR AGONIST CONJUGATES, METHODS AND USES THEREOF” (Ambrx, Inc., priority 2020, published 2023).
